The compounds below were run against sigma receptor (assay: Sigma receptor binding, [^3 H]DTG, brain membranes (both sigma-1 and sigma-2 sites)). Settings: Table 6; [^3 H]DTG.
Design: species or system guinea pig
Procedure: Sigma receptor binding assays using guinea pig brain membrane homogenates and the radioligand [^3 H]DTG were conducted as described by Weber et al.. […] Briefly, frozen whole guinea-pig brains (Biotrol, Indianapolis, Ind.) were homogenized in 10 volumes (w/v) of ice-cold 320 mM sucrose using a Brinkman polytron. The homogenate was centrifuged at 1,000× g for 20 minutes at 4° C. The supernatant was centrifuged at 20,000× g for 20 minutes at 4° C. The resulting pellet was resuspended in 10 initial volumes of 50 mM Tris/HCl buffer at pH 7.4 and centrifuged at 20,000× g for 20 minutes at 4° C. The resulting pellet was resuspended in 5 initial volumes ice-cold 50 mM Tris/Hcl […], and the final volume was adjusted to yield a protein concentration of 3 mg/ml. Aliquots of 20-ml were stored at -70° C. until used, with no detectable loss of binding.
The protein concentration in the 1-ml final incubation volume was 800 ug/ml, corresponding to 32 mg of brain tissue (original wet weight) and to a tissue concentration within the linear range for specific binding. […] Incubations were terminated after 90 minutes at room temperature by addition of 4 ml of ice-cold 50 mM Tris/HCl (pH 7.4) and rapid filtration of the membrane suspension through Whatman GF/B glass-fiber filters under vacuum, using a 48-well cell harvester (Brandel). The filters were washed 2 times with 4 ml of 50 mM Tris/HCl (pH 7.4). Each filter was suspended in 10 ml Cytoscint (ICI), and radioactivity was measured by liquid scintillation spectrometry at a counting efficiency of approximately 50%. IC50 values were determined by non-linear regression analyis.
(§1) Further sigma receptor binding assays against [^3 H]DTG and 5HT-1A binding assays were conducted according to the procedure outlined in the previous examples.
Radioligand Binding. […] Briefly, membranes (P2 microsomal fraction) were diluted 1:3 with 50 mM Tris HCl (pH 7.4) and 0.4 mL was combined with 50 μL [^3 H]DTG (1-2 nM final concentration) and 50 μL of competing drug or buffer. After 90 min at room temperature, incubation was terminated by rapid filtration under vacuum through Whatman GF/B glass fiber filters using a Brandel 48-well cell harvester. Filters were washed three times with 5 mL of cold Tris HCl buffer and each filter was suspended in 5 mL of Cytoscint (ICN Biomedical). Radioactivity was measured by liquid scintillation spectrometry at a counting efficiency of 50%.

Structure (SMILES)	IC50
c1ccc(CCCCCNCCc2ccccc2)cc1 [Compound 89, N-(5-phenylpentyl)phenethylamine]	2.74 nM
NCCCCCC1CCCCC1.O=C(O)C(=O)O [Compound 126, 5-Cyclohexylpentylamine Hydrogen Oxalate]	219 nM
C[C@@H](Cc1ccccc1)N(C)CCCc1ccccc1 [Compound 113, N-Methyl-N-(3-phenylpropyl)-1-phenylisopropylamine]	2.22 nM
CN1CCN(CC/C=C\c2cccc(C(F)(F)F)c2)CC1 [Compound 105, N-(4-(3-trifluoromethyl)-3-(Z)-butenyl)-N-methylpiperazine]	9.5 nM
c1ccc(CCCCNCc2ccccc2)cc1 [Compound 75, N-(4-phenylbutyl)benzylamine]	13.6 nM

Same assay, conditions: Table 7; Phenyl-(CH2)x -NH--(CH2)y -Phenyl; read-out: Ki

Structure (SMILES)	Ki
c1ccc(CCCCCNCCc2ccccc2)cc1 [Compound 89, N-(5-phenylpentyl)phenethylamine]	2.4 nM
c1ccc(CCCCNCc2ccccc2)cc1 [Compound 75, N-(4-phenylbutyl)benzylamine]	13 nM

Same assay, conditions: running text, Examples 5 and 6; read-out: sigma receptor Ki

Structure (SMILES)	Ki
c1ccc(CCCCCNCCc2ccccc2)cc1 [Compound 89, N-(5-phenylpentyl)phenethylamine]	2.4 nM
NCCCCCC1CCCCC1.O=C(O)C(=O)O [Compound 126, 5-Cyclohexylpentylamine Hydrogen Oxalate]	200 nM

What follows are compounds tested against T1, sigma-1 binding site (Cavia porcellus, UniProt Q60492) (assay: biochemical). Settings: Example 8.
T1 construct: Guinea pig whole membrane preparations (P2 microsomal fraction); from tissue; host or cells: guinea pig membranes (P2 microsomal fraction), as described by Weber et al; brain inferred from the sister test b489
T1 sequence (Q60492 whole entry): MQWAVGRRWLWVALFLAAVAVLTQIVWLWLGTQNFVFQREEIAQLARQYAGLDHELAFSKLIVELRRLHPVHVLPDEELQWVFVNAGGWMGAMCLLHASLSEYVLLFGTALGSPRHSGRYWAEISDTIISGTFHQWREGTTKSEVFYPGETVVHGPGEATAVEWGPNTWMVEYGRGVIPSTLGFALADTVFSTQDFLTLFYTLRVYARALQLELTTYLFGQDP
Design: species or system guinea pig
Procedure: [^3 H]DTG was purchased from DuPont/NEN.
The radioactivity on the filters was determined by scintillation spectrometry at an efficiency of about 50% using Cytoscint (ICN) scintillation fluid.

Structure (SMILES)	sigma-2/sigma-1 selectivity
NCCCCCC1CCCCC1.O=C(O)C(=O)O [Compound 126, 5-Cyclohexylpentylamine Hydrogen Oxalate]	13

Same assay, conditions: Table 10; read-out: SIGMA-1 KI vs. 3H-PENTAZOCINE MEAN

Structure (SMILES)	Ki
NCCCCCC1CCCCC1.O=C(O)C(=O)O [Compound 126, 5-Cyclohexylpentylamine Hydrogen Oxalate]	191 nM
C[C@@H](Cc1ccccc1)N(C)CCCc1ccccc1 [Compound 113, N-Methyl-N-(3-phenylpropyl)-1-phenylisopropylamine]	0.51 nM
CN1CCN(CC/C=C\c2cccc(C(F)(F)F)c2)CC1 [Compound 105, N-(4-(3-trifluoromethyl)-3-(Z)-butenyl)-N-methylpiperazine]	1.5 nM
c1ccc(CCCCNCc2ccccc2)cc1 [Compound 75, N-(4-phenylbutyl)benzylamine]	9.61 nM

Same assay, conditions: Table 10; sigma-1/sigma-2

Structure (SMILES)	S1/S2 Ratio
NCCCCCC1CCCCC1.O=C(O)C(=O)O [Compound 126, 5-Cyclohexylpentylamine Hydrogen Oxalate]	0.075
C[C@@H](Cc1ccccc1)N(C)CCCc1ccccc1 [Compound 113, N-Methyl-N-(3-phenylpropyl)-1-phenylisopropylamine]	0.105
CN1CCN(CC/C=C\c2cccc(C(F)(F)F)c2)CC1 [Compound 105, N-(4-(3-trifluoromethyl)-3-(Z)-butenyl)-N-methylpiperazine]	0.008
c1ccc(CCCCNCc2ccccc2)cc1 [Compound 75, N-(4-phenylbutyl)benzylamine]	0.059

Same assay, conditions: Table 16; read-out: Sigma-1 IC50

Structure (SMILES)	IC50
NCCCCCC1CCCCC1.O=C(O)C(=O)O [Compound 126, 5-Cyclohexylpentylamine Hydrogen Oxalate]	190 nM

Same assay, conditions: less than about 0.1; see Table 10

Structure (SMILES)	IC50 ratio of sigma-1/sigma-2 (sigma-1 selective compounds)
NCCCCCC1CCCCC1.O=C(O)C(=O)O [Compound 126, 5-Cyclohexylpentylamine Hydrogen Oxalate]	less than 0.1
C[C@@H](Cc1ccccc1)N(C)CCCc1ccccc1 [Compound 113, N-Methyl-N-(3-phenylpropyl)-1-phenylisopropylamine]	less than 0.1
CN1CCN(CC/C=C\c2cccc(C(F)(F)F)c2)CC1 [Compound 105, N-(4-(3-trifluoromethyl)-3-(Z)-butenyl)-N-methylpiperazine]	less than 0.1
c1ccc(CCCCNCc2ccccc2)cc1 [Compound 75, N-(4-phenylbutyl)benzylamine]	less than 0.1

These compounds were tested against T2, sigma-2 binding site (Cavia porcellus, UniProt H0V073) (assay: biochemical). Settings: Example 9; read-out: sigma-2 IC50.
T2 construct: Guinea pig whole membrane preparations (P2 microsomal fraction); from tissue; host or cells: guinea pig membranes (P2 microsomal fraction), as described by Weber et al; brain inferred from the sister test b489
T2 sequence (H0V073 1-176): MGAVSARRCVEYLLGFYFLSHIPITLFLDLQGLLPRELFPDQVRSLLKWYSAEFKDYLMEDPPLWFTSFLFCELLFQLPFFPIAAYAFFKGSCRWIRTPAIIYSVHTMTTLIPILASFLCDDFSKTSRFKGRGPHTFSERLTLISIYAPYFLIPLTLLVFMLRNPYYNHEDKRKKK
Design: species or system guinea pig
Procedure: For the standard equilibrium assay, the mixtures were incubated for 30 min. at room temperature, then filtered and the radioactivity determined as described above.

Structure (SMILES)	IC50
c1ccc(CCCCNCc2ccccc2)cc1 [Compound 75, N-(4-phenylbutyl)benzylamine]	160 nM

Same assay, conditions: Table 10; read-out: SIGMA-2 KI vs. 3H-DTG + PENTAZOCINE MEAN

Structure (SMILES)	Ki
c1ccc(CCCCCNCCc2ccccc2)cc1 [Compound 89, N-(5-phenylpentyl)phenethylamine]	14.6 nM
NCCCCCC1CCCCC1.O=C(O)C(=O)O [Compound 126, 5-Cyclohexylpentylamine Hydrogen Oxalate]	2550 nM
C[C@@H](Cc1ccccc1)N(C)CCCc1ccccc1 [Compound 113, N-Methyl-N-(3-phenylpropyl)-1-phenylisopropylamine]	4.87 nM
CN1CCN(CC/C=C\c2cccc(C(F)(F)F)c2)CC1 [Compound 105, N-(4-(3-trifluoromethyl)-3-(Z)-butenyl)-N-methylpiperazine]	177 nM
c1ccc(CCCCNCc2ccccc2)cc1 [Compound 75, N-(4-phenylbutyl)benzylamine]	162 nM

Same assay, conditions: Table 18; read-out: IC50 (nM) at sigma-2

Structure (SMILES)	IC50
c1ccc(CCCCCNCCc2ccccc2)cc1 [Compound 89, N-(5-phenylpentyl)phenethylamine]	15 nM

These compounds were tested against T3, 5-HT1A receptor (Rattus norvegicus, UniProt P19327) (assay: biochemical). Settings: Table 6; read-out: 5HT-1A (nM) MEAN.
T3 sequence (P19327 1-422): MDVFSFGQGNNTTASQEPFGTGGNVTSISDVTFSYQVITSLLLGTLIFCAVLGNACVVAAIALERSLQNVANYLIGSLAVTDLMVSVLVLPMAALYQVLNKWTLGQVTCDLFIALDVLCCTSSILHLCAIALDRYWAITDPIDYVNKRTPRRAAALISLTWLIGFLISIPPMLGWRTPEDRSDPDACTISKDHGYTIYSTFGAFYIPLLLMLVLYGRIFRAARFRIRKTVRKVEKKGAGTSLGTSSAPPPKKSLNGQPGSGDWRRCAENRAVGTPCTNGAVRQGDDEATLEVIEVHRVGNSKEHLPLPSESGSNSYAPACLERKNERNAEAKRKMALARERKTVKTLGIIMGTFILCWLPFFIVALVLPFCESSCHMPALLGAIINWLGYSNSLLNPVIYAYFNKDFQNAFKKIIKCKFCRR
Format: binding
Design: 47: 529-540 (1986); from tissue; host or cells: brain tissue, inferred from the cited method (rat frontal cortex)
Procedure: as §1

Structure (SMILES)	IC50
c1ccc(CCCCCNCCc2ccccc2)cc1 [Compound 89, N-(5-phenylpentyl)phenethylamine]	106 nM
C[C@@H](Cc1ccccc1)N(C)CCCc1ccccc1 [Compound 113, N-Methyl-N-(3-phenylpropyl)-1-phenylisopropylamine]	2150 nM
CN1CCN(CC/C=C\c2cccc(C(F)(F)F)c2)CC1 [Compound 105, N-(4-(3-trifluoromethyl)-3-(Z)-butenyl)-N-methylpiperazine]	4960 nM
c1ccc(CCCCNCc2ccccc2)cc1 [Compound 75, N-(4-phenylbutyl)benzylamine]	255 nM

Source: patent publication US6057371A, “Sigma receptor ligands and the use thereof” (Virginia Commonwealth University, priority 1992, dated 2000)
